Reference: PMC12068008 (International Journal of Molecular Sciences, 2024)
Where “and” joins values, the source holds several entries; their conditions need not be identical. Identical values can stand only once.

Legend:
[1] = Metal-chelating assay, binding stoichiometry (molar ratio method), Cu2+; type: physicochemical; conditions: ethanol, 30 min, compound 5 × 10^−5 M, one ion coordinates with two molecules
Description: (§1) Binding stoichiometry was determined using the molar ratio method, with increasing concentrations of metal ions (from 0 to 1.5 × 10^−4 M) (Figures S1 and S2). Absorption spectra were collected 30 min after mixing. The change in absorption at the wavelength of maximum absorbance for the formed complex was plotted against the metal ion (M^2+ = Cu^2+, Zn^2+, and Fe^2+) to compound ratio (cM^2+/ccompound) and is presented in Figure 3. This graph allows the determination of the binding ratio between the newly synthesized compounds and metal ions. […] In contrast, the results for Fe^2+ indicate that only one Fe^2+ ion can bind to both compounds.
(§2) The metal-chelating ability of synthesized compounds in ethanol was assessed using UV/Vis spectrophotometer (Lambda 35, Perkin Elmer) recording spectra over a wavelength range of 230–600 nm in a 1 cm quartz cell. The mixture of compound at 5 × 10^−5 M of final concentration and metal ions at 1 × 10^−4 M of final concentration was incubated for 30 min at room temperature. The tested temperature was 25 °C. […]
(§3) The binding stoichiometry was assessed by adding increasing concentrations of metal ions (0–1.5 × 10^−4 M) to a fixed concentration of compound (5 × 10^−5 M) and incubating the mixture for 30 min at room temperature. The spectra were then measured as described above, and the ligand-to-metal chelation ratio in the complex was calculated.

[2] = biological target: eqBuChE (Equus caballus, UniProt P81908); experiment: BuChE inhibition (Ellman's procedure); type: biochemical; conditions: 37 °C; for IC50: read-out: IC50 BChE; for inhibition at 100 µM: at 1 × 10^−4 M, read-out: Percentage Inhibition BuChE
Chain of eqBuChE (P81908 whole entry): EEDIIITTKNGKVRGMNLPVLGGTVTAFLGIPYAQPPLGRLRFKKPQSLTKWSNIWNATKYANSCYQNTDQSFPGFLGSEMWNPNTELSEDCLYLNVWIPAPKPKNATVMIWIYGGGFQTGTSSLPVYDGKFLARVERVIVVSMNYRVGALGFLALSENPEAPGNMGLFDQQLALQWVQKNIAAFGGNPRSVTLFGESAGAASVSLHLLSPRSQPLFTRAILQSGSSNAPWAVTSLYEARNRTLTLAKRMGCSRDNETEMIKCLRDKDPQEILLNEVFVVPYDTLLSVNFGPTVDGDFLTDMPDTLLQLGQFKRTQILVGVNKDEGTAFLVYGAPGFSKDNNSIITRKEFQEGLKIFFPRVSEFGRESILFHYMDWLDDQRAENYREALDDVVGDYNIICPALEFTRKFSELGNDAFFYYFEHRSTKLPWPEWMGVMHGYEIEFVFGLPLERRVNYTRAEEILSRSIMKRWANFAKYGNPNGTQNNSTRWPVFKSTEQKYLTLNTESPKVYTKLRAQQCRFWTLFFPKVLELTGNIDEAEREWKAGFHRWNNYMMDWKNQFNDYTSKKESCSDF
Description: The abilities of compounds to inhibit AChE and BuChE activity were determined following Ellman’s procedure, with AChI and BuChI as the enzyme substrate, respectively, and DTNB as a chromogenic reagent. AChE’s and BuChE’s working solutions were prepared at 20 mM TRIS and deionized water, respectively. AChI and BuChI solutions were prepared in deionized water. A 0.01 M DTNB solution was prepared with 0.1 M phosphate buffer (pH 7) containing 0.15% (w/v) sodium bicarbonate. Stock solutions (10 mM) of investigated compounds were prepared daily by dissolving solid compounds in DMSO. The reaction mixture containing phosphate buffer, DTNB, enzyme, and compound was preincubated 30 min at 37 °C. After the preincubation time, the enzyme reaction was initiated by adding appropriate substrate and left to incubate for 6 min. After incubation, 0.1 M SDS was added to stop the reaction. Absorbance measurements were performed using a UV/Vis spectrophotometer (Lambda 35, Perkin Elmer), measuring absorbance at 412 nm. A blank assay, containing all components except the enzyme, was used to account for non-enzyme reactions. The control solution contained all components except the inhibitor. All experiments were conducted in triplicate, and the results are expressed as the mean percentage enzyme activity compared to the control value. IC50 values were determined graphically using Origin 9 Microsoft Windows.

[3] = test system: HeLa cells; experiment: SRB assay, HeLa cells; type: cell-based; conditions: for IC50: Homo sapiens, HeLa, 72 h after treatment, SRB, read-out: IC50 HeLa; for Viability of HeLa cells: % of control, concentrations 1 × 10^−6 to 1 × 10^−4 M (not assigned to the values for 2a)
Description: All cell lines were cultured in Dulbecco’s Modified Eagle’s Medium (DMEM) with 4500 mg/L glucose and L-glutamine (Capricorn Scientific, Ebsdorfergrund, Germany), supplemented with 10% foetal bovine serum (PAN-Biotech, Aidenbach, Germany), 10,000 U/mL penicillin, and 10 mg/mL streptomycin solution (Capricorn Scientific) under standard conditions at 37 °C in a humidified 5% CO2 atmosphere (ESCO, Lifesciences Group, Singapore).
Cells were seeded on a 96-well plate (Thermo Fisher Scientific, Waltham, MA, USA) at 2 × 10^3 cells per well in DMEM medium. For the analysis of the concentration- and time-dependent effect of the analysed compounds, cell monolayers were treated 24 h after seeding with concentrations 1 × 10^−6, 1 × 10^−5, and 1 × 10^−4 M for 24, 48, or 72 h. Cell viability was detected using sulforhodamine B (SRB) assay, based on the staining of cellular proteins. The assay was performed according to the procedure described by Skehan et al.. The cells were fixed with 10% trichloroacetic acid (TCA, CARLO ERBA Reagents GmbH, Emmendingen, Germany) for 1 h at 4 °C, washed with water, and stained for 15 min with 0.4% SRB (Sigma-Aldrich Chemie GmbH, Steinheim, Germany) in 1% acetic acid. The unbound SRB dye was rinsed with 1% acetic acid, while the protein-bound dye was extracted with a 10 mM Tris base (Sigma-Aldrich). […] The results were expressed as a percentage of the control, where the cell growth of the control is set to 100%. […] The selectivity index (SI) was determined according to the following formula:(2) SI=IC50 for fibroblast cell line/IC50 for tumour cell line
The assay was performed two times in 4 replicates for every experimental group. The statistical significance of differences between treated and untreated cells was estimated by the independent Student’s t-test, with the level of significance set at p < 0.05.

[4] = Metal-chelating assay, binding stoichiometry (molar ratio method), Zn2+; type: physicochemical; conditions: ethanol, 30 min, compound 5 × 10^−5 M, one ion coordinates with two molecules
Description: as §1, §2, §3

[5] = Metal-chelating assay, binding stoichiometry (molar ratio method), Fe2+; type: physicochemical; conditions: ethanol, 30 min, compound 5 × 10^−5 M
Description: as §1, §2, §3

[6] = DPPH radical scavenging assay; conditions: 30 min incubation, 25 °C
Description: DPPH (2,2-diphenyl-1-picrylhydrazyl) radical scavenging assay was used to assess free-radical scavenging activity of synthesized compounds. Initially, 1 × 10^−4 M working solution of DPPH was prepared, and 350 µL was added to 350 µL of the solution of each compound. The final concentrations of the compounds (Q, 2a, and 2b) in the samples were 1 × 10^−3 M, 1 × 10^−4 M, and 1 × 10^−5 M. The control included ethanol only and DPPH–ethanol solution without compounds. The mixtures were incubated at 25 °C in the dark for 30 min. After incubation, the absorbance of the samples at 517 nm was measured in duplicate by using a UV/Vis spectrophotometer (Lambda 35, Perkin Elmer, Waltham, MA, USA). The DPPH radical scavenging ability was calculated using the following equation:(1) Antioxidative activity(%)=Acontrol−Asample/Acontrol×100% where Asample and Acontrol represent the absorbance at 517 nm of the sample and control, respectively. All samples were analysed in duplicate.

Structure (SMILES) | binding stoichiometry Cu^2+ [1] | IC50 [2] | inhibition at 100 µM [2] | IC50 [3] | binding stoichiometry Zn^2+ [4] | binding stoichiometry Fe^2+ (ions bound) [5] | IC50 [6] | Viability of HeLa cells ([3]; 48 h) | Viability of HeLa cells ([3]; 72 h)
COc1cc2c(cc1OC)CN(Cc1c(O)cc(O)c3c(=O)c(O)c(-c4ccc(O)c(O)c4)oc13)CC2 [Compound 2b] | 2 | 41.1 µM | 67.6% | 19.5 ± 0.97 µM | 2 | one | 10.2 µM | – | –
O=c1c(O)c(-c2ccc(O)c(O)c2)oc2c(CN3CCc4ccccc4C3)c(O)cc(O)c12 [Compound 2a] | 2 | 16.9 µM | 70% | 53.5 ± 2.67 µM | 2 | one | 1.59 µM | 43% and 37% | 35% and 29%
